# Results taken from US10624944B2, “Anti-inflammatory peptides for treating non-alcoholic steatohepatitis (NASH)” (Creative Bio-Peptides Inc., priority 2017, dated 2020).
# Read-outs that look alike come from different tables or passages of the source. Square brackets hold non-standard residues; d marks the D form. Ends that are not written are not given here.
# How the values were obtained:
# [1] = system: inflammatory cytokine levels; conditions: Hu; cited from earlier work
# TLR4/MyD88 [2] = conditions: Rat; cited from earlier work
# [3] = system: high fat diet mouse model of NAFLD; conditions: cited from earlier work
# CCR2 [4] = target: T1, CCR2 (Homo sapiens, UniProt P41597); assay: CCL2 (MCP-1)-elicited chemotaxis of human monocytes; assay type: cell-based; set-up: endogenous in cells; host or cells: human monocytes; conditions: FIG. 3; methods similar to FIG. 2; low concentration
# T1 sequence (P41597 whole entry): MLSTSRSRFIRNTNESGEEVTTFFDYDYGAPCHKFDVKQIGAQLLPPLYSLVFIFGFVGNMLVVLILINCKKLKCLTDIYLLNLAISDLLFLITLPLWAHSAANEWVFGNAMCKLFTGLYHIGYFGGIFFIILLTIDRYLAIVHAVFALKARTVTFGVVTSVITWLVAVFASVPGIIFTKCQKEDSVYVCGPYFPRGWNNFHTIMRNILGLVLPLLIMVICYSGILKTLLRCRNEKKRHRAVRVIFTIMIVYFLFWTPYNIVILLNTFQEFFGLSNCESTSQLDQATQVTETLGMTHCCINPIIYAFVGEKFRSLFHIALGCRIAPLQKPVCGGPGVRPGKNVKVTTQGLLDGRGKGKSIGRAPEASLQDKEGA
# Protocol: Monocytes were treated with the indicated doses of RAP-103 for 30 min before chemotaxis against human CCL2 (MCP-1) or CCL4 (MIP-1β) (both 50 ng/mL) for 90 min. Data (chemotactic index) are presented as mean±SEM. The chemotactic index for MCP-1 without RAP-103 was 2.5-3.5 times over control, whereas for MIP-1 ? without RAP-103, it was approximately 2 times over control. Data are presented as mean±SEM. (*P<0.05, **P<0.01 vs RAP-103 untreated). Data are from [Padi, 2012, FIG. 1]. […] Dual-chemokine CCR2/CCR5 receptor antagonists may have added therapeutic value by blocking multiple inflammatory pathways.
# Methods are similar to those in FIG. 2.
# TLR4/MyD88 [5] = conditions: iDCs treated at 10^-12 M for 30 min, then LPS 100 ng/ml, analyzed after 48 hrs
# Protocol: To determine whether all-D-TTNYT (SEQ ID NO:1) blocks maturation of antigen-presenting dendritic cells, human PBMC's were isolated from peripheral blood by Ficoll-Paque centrifugation and then monocytes were isolated by negative selection using immunobeads (Miltenyi). Human monocyte derived immature dendritic cells (iDCs) were then generated by treating monocytes with GM-CSF/IL4.
# After 30 min LPS (100 ng/ml) was added to the cells and cells were analyzed after 48 hrs. for surface maturation markers using fluorescent labeled antibodies by flow cytometry.
# [6] = system: human monocyte derived immature dendritic cells (iDCs)
# Text: In liver, TLR4 is expressed by all parenchymal and non-parenchymal cell types, and contributes to tissue damage caused by a variety of etiologies. TLR4 signaling occurs in hepatic stellate cells (HSCs), the major fibrogenic cell type in injured liver, and mediates an inflammatory phenotype leading to fibrogenesis.
# [7] = system: chemokines, chemokine receptors and cytokines; conditions: Rat, oral gavage 0.05-1 mg/kg for 7 days, nerve injured
# Text: The specific experimental details are provided in Padi, 2012 (7).
# CCR2 [8] = target: T1, CCR2; conditions: 30 min pretreatment; CCL2 50 ng/mL for 90 min; FIG. 2; cited from earlier work
# CCR5 = CCR5 (Homo sapiens, UniProt P51681); conditions: 30 min pretreatment; CCL4 50 ng/mL for 90 min; FIG. 2; cited from earlier work
# CCR5, sequence (P51681 whole entry): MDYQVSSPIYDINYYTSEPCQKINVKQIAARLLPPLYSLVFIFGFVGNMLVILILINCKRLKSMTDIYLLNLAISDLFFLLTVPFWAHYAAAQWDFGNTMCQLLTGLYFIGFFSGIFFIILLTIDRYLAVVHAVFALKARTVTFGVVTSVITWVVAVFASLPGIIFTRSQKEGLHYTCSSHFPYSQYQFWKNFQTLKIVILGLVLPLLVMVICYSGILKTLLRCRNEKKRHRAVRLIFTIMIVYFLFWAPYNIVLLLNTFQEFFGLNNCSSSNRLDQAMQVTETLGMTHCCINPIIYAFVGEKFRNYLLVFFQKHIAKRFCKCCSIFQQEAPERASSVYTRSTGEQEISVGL
# response to bradykinin = conditions: amounts up to 50,000 times the standard challenge of bradykinin; cited from earlier work
# [9] = listed as all-D-pentapeptide TTNYT
substance,measurement,setting,value
Dala1-peptide T-amide [DAPTA],Change of ICAM-1,[1],decrease
same,Change of IL-1,[1],decrease
same,Change of IL-6,[1],decrease
same,Change of IL-8,[1],decrease
same,Change of IL-23,[1],decrease
same,Change of NFkB,[1],decrease
same,Change of STAT3,[1],decrease
same,Change of TNFα,[1],decrease
same,Change of TLR4/MyD88,TLR4/MyD88 [2],decrease
Maraviroc,CCL5/RANTES expression,[3],significantly lower
same,hepatic steatosis,[3],ameliorated hepatic steatosis
all-D-NTSYR ([dN][dT][dS][dY][dR]) [all-D-amino acid pentapeptide NTSYR],CCL2 human monocyte chemotaxis,CCR2 [4],antagonists
all-D-SSTYR ([dS][dS][dT][dY][dR]) [all-D-amino acid pentapeptide SSTYR],CCL2 human monocyte chemotaxis,CCR2 [4],antagonists
all-D-TTNYT,"expression of maturation markers CD86, HLA-DR, CD58 and ICAM1 induced by TLR4/MyD88 activation (LPS)",TLR4/MyD88 [5],reduces expression of all the maturation markers
same,DC maturation of the four markers caused by LL37,[6],no effect
same,Change of CCR2,[7],decrease
same,Change of CCR5,[7],decrease
same,Change of IL-6,[7],decrease
same,Change of IL-β,[7],decrease
same,Change of MCP-1 (CCL2),[7],decrease
same,Change of MIP-1α (CCL3),[7],decrease
same,Change of TNFα,[7],decrease
same,Change of CCR2,[7]; [9],lowering expression
same,Change of CCR5,[7]; [9],lowering expression
same,Change of IL-β,[7]; [9],lowering expression
same,Change of MCP-1 (CCL2),[7]; [9],lowering expression
same,Change of MIP-1α (CCL3),[7]; [9],lowering expression
same,Change of TNFα,[7]; [9],lowering expression
same,CCL2 (MCP-1) human monocyte chemotaxis (chemotactic index),CCR2 [8],dual-antagonist
same,CCL4 (MIP-1β) human monocyte chemotaxis (chemotactic index),CCR5,dual-antagonist
all-D-TTSYT ([dT][dT][dS][dY][dT]) [all-D-amino acid pentapeptide TTSYT],CCL2 human monocyte chemotaxis,CCR2 [4],antagonists
all-D-bradykinin,inhibition of the response to bradykinin or bradykinin-like effect,response to bradykinin,"neither any inhibition of the response to bradykinin, or any bradykinin-like effect"
